# Measurements reported in PMC10252594 (Cancers, 2023).
# Assays:
# 22Rv1 = assay: PCa cell viability proliferation screening (MTS), 22Rv1; format: cell-based; details: Homo sapiens, 72 h, 22Rv1, AR positive, three days
# Protocol: VCaP (4 × 10^4 cells/well) were seeded in 96-well plates in DMEM media supplemented with 10% fetal bovine serum (FBS), penicillin, streptomycin, and sodium pyruvate. 22Rv1 cells (2 × 10^3 cells/well) and LAPC-4 cells (6 × 10^3 cells/well) were seeded in 96-well plates in RPMI media supplemented with 10% FBS, penicillin, streptomycin, and sodium pyruvate. The cells were incubated at 37 °C in a 5% CO2 humidified atmosphere for 24 h before treatment with multiple concentrations of RM-581 dissolved in dimethyl sulfoxide (DMSO). The concentrations used were between 0.01 μM and 50 μM. Treatment lasted for 3 days for all the cell lines except VCaP cells, which were treated for 7 days due to slower proliferation rates. At the end of the assay, 20 μL of MTS (Cell Titer 96 Aqueous, Promega, Nepean, ON, Canada) were added to each well, and the mixture was incubated for 4 h at 37 °C. The plates were subsequently analyzed at 490 nm using a Tecan M-200 microplate reader (Männedorf, Switzerland).
# LAPC-4 xenografts = assay: Fatty acid determination (GC-FID) in LAPC-4 xenograft experiment; format: in vivo, mice; details: 10 mg/kg PO
# Protocol: […] The fatty acid profile was next determined by gas chromatography (GC), coupled with a flame ionization detector (FID), using phosphatidylcholine C21:0 (Avanti Polar Lipids) as an internal standard. The GC model 5890 was from Agilent Technologies (Mississauga, ON, Canada). The capillary column used was a HP-88 (100 m × 0.25 mm, […], Agilent Technologies), and the carrier gas was helium at 1.5 mL/min. A total of 56 fatty acids were identified according to their retention time, using fatty acid mixtures as standards.
# [1] = LAPC-4 tumor, 28 days (RM-581 group per Table S1)
# [2] = LAPC-4 tumor, 28 days, Table S1
compound,measurement,setting,value
C#C[C@]1(O)CC[C@H]2[C@@H]3CCc4cc(OC)c(N5CCN(C(=O)[C@@H]6CCCN6C(=O)c6ccc7ccccc7n6)CC5)cc4[C@H]3CC[C@@]21C [RM-581],IC50,22Rv1,1380 nM
same,"S-FA, liver",LAPC-4 xenografts; 28 days,12.5 mg/g
same,"S-FA, plasma",LAPC-4 xenografts; 28 days,1.10 µg/mL
same,"S-FA, plasma, % vs CTL",LAPC-4 xenografts; 28 days,+2.8%
same,"S-FA, tumor",LAPC-4 xenografts; 28 days,8.15 mg/g
same,"T-FA, liver",LAPC-4 xenografts; 28 days,34.5 mg/g
same,"T-FA, liver, % vs CTL",LAPC-4 xenografts; 28 days,+19.8%
same,"T-FA, plasma",LAPC-4 xenografts; 28 days,3.71 µg/mL
same,"T-FA, plasma, % vs CTL",LAPC-4 xenografts; 28 days,+1.6%
same,"T-FA, tumor",LAPC-4 xenografts; 28 days,24.5 mg/g
same,"U-FA, liver",LAPC-4 xenografts; 28 days,21.9 mg/g
same,"U-FA, plasma",LAPC-4 xenografts; 28 days,2.59 µg/mL
same,"U-FA, plasma, % vs CTL",LAPC-4 xenografts; 28 days,+1.6%
same,"U-FA, tumor",LAPC-4 xenografts; 28 days,16.0 mg/g
same,"Adrenic acid-1 (7c10c13c16c) 22:4, % vs CTL","LAPC-4 xenografts; LAPC-4 tumor, 28 days",+8.6%
same,"Adrenic acid-1 (7c10c13c16c) 22:4, FA RM-581","LAPC-4 xenografts; LAPC-4 tumor, 28 days",0.380 mg/g
same,"Adrenic acid-2 (4c7c10c13c16c) 22:5, % vs CTL","LAPC-4 xenografts; LAPC-4 tumor, 28 days",−12%
same,"Adrenic acid-2 (4c7c10c13c16c) 22:5, FA RM-581","LAPC-4 xenografts; LAPC-4 tumor, 28 days",0.260 mg/g
same,"Alpha-linolenic acid (9c12c15c) 18:3, FA RM-581","LAPC-4 xenografts; LAPC-4 tumor, 28 days",0.230 mg/g
same,"Arachidonic (5c8c11c14c) 20:4, % vs CTL","LAPC-4 xenografts; LAPC-4 tumor, 28 days",−2.1%
same,"Arachidonic (5c8c11c14c) 20:4, FA RM-581","LAPC-4 xenografts; LAPC-4 tumor, 28 days",2.150 mg/g
same,"Cervonic acid 22:6, % vs CTL","LAPC-4 xenografts; LAPC-4 tumor, 28 days",0%
same,"Cervonic acid 22:6, FA RM-581","LAPC-4 xenografts; LAPC-4 tumor, 28 days",0.530 mg/g
same,"Dihomo-γ-linolenic acid (8c11c14c) 20:3, FA RM-581","LAPC-4 xenografts; LAPC-4 tumor, 28 days",0.580 mg/g
same,"Dimethoxyhexadecanoic acid 16:0, % vs CTL","LAPC-4 xenografts; LAPC-4 tumor, 28 days",0%
same,"Dimethoxyhexadecanoic acid 16:0, FA RM-581","LAPC-4 xenografts; LAPC-4 tumor, 28 days",0.170 mg/g
same,"Docosapentaenoic acid (7c10c13c16c19c) 22:5, % vs CTL","LAPC-4 xenografts; LAPC-4 tumor, 28 days",+17%
same,"Docosapentaenoic acid (7c10c13c16c19c) 22:5, FA RM-581","LAPC-4 xenografts; LAPC-4 tumor, 28 days",0.140 mg/g
same,"Lignoceric acid 24:0, % vs CTL","LAPC-4 xenografts; LAPC-4 tumor, 28 days",+23%
same,"Lignoceric acid 24:0, FA RM-581","LAPC-4 xenografts; LAPC-4 tumor, 28 days",0.160 mg/g
same,"Linoleic acid (9c12c) 18:2, FA RM-581","LAPC-4 xenografts; LAPC-4 tumor, 28 days",4.435 mg/g
same,"Myristic acid 14:0, FA RM-581","LAPC-4 xenografts; LAPC-4 tumor, 28 days",0.275 mg/g
same,"Nervonic acid (15c) 24:1, % vs CTL","LAPC-4 xenografts; LAPC-4 tumor, 28 days",+18%
same,"Nervonic acid (15c) 24:1, FA RM-581","LAPC-4 xenografts; LAPC-4 tumor, 28 days",0.130 mg/g
same,"Oleic acid (9c) 18:1, FA RM-581","LAPC-4 xenografts; LAPC-4 tumor, 28 days",4.920 mg/g
same,"Palmitic acid 16:0, FA RM-581","LAPC-4 xenografts; LAPC-4 tumor, 28 days",5.095 mg/g
same,"Palmitoleic acid (9c) 16:1, FA RM-581","LAPC-4 xenografts; LAPC-4 tumor, 28 days",1.035 mg/g
same,"Stearic acid 18:0, % vs CTL","LAPC-4 xenografts; LAPC-4 tumor, 28 days",+3.5%
same,"Stearic acid 18:0, FA RM-581","LAPC-4 xenografts; LAPC-4 tumor, 28 days",2.355 mg/g
same,"Vaccenic acid (11c) 18:1, % vs CTL","LAPC-4 xenografts; LAPC-4 tumor, 28 days",+5.3%
same,"Vaccenic acid (11c) 18:1, FA RM-581","LAPC-4 xenografts; LAPC-4 tumor, 28 days",0.690 mg/g
same,"Adrenic acid-1 (7c10c13c16c) 22:4, % of Total FA",LAPC-4 xenografts; [1],1.54%
same,"Adrenic acid-2 (4c7c10c13c16c) 22:5, % of Total FA",LAPC-4 xenografts; [1],1.07%
same,"Alpha-linolenic acid (9c12c15c) 18:3, % of Total FA",LAPC-4 xenografts; [1],0.94%
same,"Arachidonic (5c8c11c14c) 20:4, % of Total FA",LAPC-4 xenografts; [1],8.77%
same,"Cervonic acid 22:6, % of Total FA",LAPC-4 xenografts; [1],2.18%
same,"Dihomo-γ-linolenic acid (8c11c14c) 20:3, % of Total FA",LAPC-4 xenografts; [1],2.35%
same,"Dimethoxyhexadecanoic acid 16:0, % of Total FA",LAPC-4 xenografts; [1],0.68%
same,"Docosapentaenoic acid (7c10c13c16c19c) 22:5, % of Total FA",LAPC-4 xenografts; [1],0.57%
same,"Lignoceric acid 24:0, % of Total FA",LAPC-4 xenografts; [1],0.65%
same,"Linoleic acid (9c12c) 18:2, % of Total FA",LAPC-4 xenografts; [1],18.1%
same,"Myristic acid 14:0, % of Total FA",LAPC-4 xenografts; [1],1.12%
same,"Nervonic acid (15c) 24:1, % of Total FA",LAPC-4 xenografts; [1],0.52%
same,"Oleic acid (9c) 18:1, % of Total FA",LAPC-4 xenografts; [1],20.1%
same,"Palmitic acid 16:0, % of Total FA",LAPC-4 xenografts; [1],20.8%
same,"Palmitoleic acid (9c) 16:1, % of Total FA",LAPC-4 xenografts; [1],4.23%
same,"Stearic acid 18:0, % of Total FA",LAPC-4 xenografts; [1],9.61%
same,"Vaccenic acid (11c) 18:1, % of Total FA",LAPC-4 xenografts; [1],2.82%
same,"Arachidic acid 20:0, FA RM-581",LAPC-4 xenografts; [2],0.05 mg/g
same,"Arachidic acid 20:0, FA RM-581 % of total",LAPC-4 xenografts; [2],0.20%
same,"Behenic acid 22:0, FA RM-581",LAPC-4 xenografts; [2],0.09 mg/g
same,"Behenic acid 22:0, FA RM-581 % of total",LAPC-4 xenografts; [2],0.35%
same,"Caproic acid 10:0, FA RM-581",LAPC-4 xenografts; [2],0 mg/g
same,"Caproic acid 10:0, FA RM-581 % of total",LAPC-4 xenografts; [2],0.02%
same,"Caprylic acid 8:0, FA RM-581",LAPC-4 xenografts; [2],0 mg/g
same,"Caprylic acid 8:0, FA RM-581 % of total",LAPC-4 xenografts; [2],0%
same,"Dimethoxyoctadecanoic acid 18:0, FA RM-581",LAPC-4 xenografts; [2],0.09 mg/g
same,"Dimethoxyoctadecanoic acid 18:0, FA RM-581 % of total",LAPC-4 xenografts; [2],0.38%
same,"Dimethoxyoctadecenoic acid (9c) w9 18:1, FA RM-581",LAPC-4 xenografts; [2],0.07 mg/g
